{"source": "patent US20040186082A1", "about": "“Enhanced phototherapy for the treatment of cancer and autoimmune disease” (priority 2003, published 2004)", "system": "psoriatic lesion on the leg", "test": "Treatment of a psoriatic lesion with topical ointment and UVB irradiation (single patient)", "format": "in vivo", "conditions": "VES 20 mg/gram ointment applied 1 day after provitamin D + UVB (3 MED); within 12 hours", "procedure": "Treatment of psoriasis with UVB irradiation. A patient with a ½ inch round psoriatic lesion on the leg was treated with provitamin D (35 mg/gram ointment) and irradiated with UVB (3 MED). […] The formally lesional tissue looked like normal healthy tissue."}
{"smiles": "Cc1c(C)c2c(c(C)c1OC(=O)CCC(=O)O)CC[C@@](C)(CCC[C@H](C)CCC[C@H](C)CCCC(C)C)O2", "note": "[Vitamin E succinate]", "values": [{"measurement": "appearance of the treated tissue (induration, redness)", "value": "the tissue was not indurated and the redness disappeared"}]}
